Data set [1] concerns HDACs (HeLa cell nuclear extracts). Briefly: HDAC enzymatic activity, Biomol Color de Lys system. It counts as biochemical. A digest of the protocol: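 HeLa nuclear extract as HDAC source with Color de Lys substrate in 50 mM Tris/Cl pH 8.0, 137 mM NaCl, 2.7 mM KCl, 1 mM MgCl2. Serially diluted compounds reacted 1 h at 25 °C, then developer added; fluorescence (Ex 350–380/Em 440–460) fitted sigmoidally for IC50.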

Usually IC50 stands for the midpoint of a concentration-inhibition curve. A low value points to greater potency. The term melting point denotes the temperature, or range, at which the solid turns liquid. As for `CC(=O)Nc1ccc(-c2nc(N3CCOCC3)c3sc(CN(C)c4ncc(C(=O)NO)cn4)cc3n2)cn1` [Compound 112, 2-(((2-(6-acetamidopyridin-3-yl)-4-morpholinothieno[3,2-d]pyrimidin-6-yl)methyl)(methyl)amino)-N-hydroxypyrimidine-5-carboxamide], the melting point was 197 to 201 °C. The IC50 in data set [1] is < 100 nM.
The like results for `CN(C)c1ccc(-c2nc(N3CCOCC3)c3sc(CN(C)c4ncc(C(=O)NO)cn4)cc3n2)cn1` [Compound 114, 2-(((2-(6-(dimethylamino)pyridin-3-yl)-4-morpholinothieno[3,2-d]pyrimidin-6-yl)methyl)(methyl)amino)-N-hydroxypyrimidine-5-carboxamide] were, in that order, 190 to 195 °C and < 100 nM.
The like results for `CN(Cc1cc2nc(-c3cncnc3)nc(N3CCOCC3)c2s1)c1ncc(C(=O)NO)cn1` [Compound 119, N-hydroxy-2-(methyl((4-morpholino-2-(pyrimidin-5-yl)thieno[3,2-d]pyrimidin-6-yl)methyl)amino)pyrimidine-5-carboxamide] were, in that order, 159 to 160 °C and < 100 nM.
The matching figures for `CCc1ncc(-c2nc(N3CCOCC3)c3sc(CN(C)c4ncc(C(=O)NO)cn4)cc3n2)cn1` [Compound 121, 2-(((2-(2-ethylpyrimidin-5-yl)-4-morpholinothieno[3,2-d]pyrimidin-6-yl)methyl)(methyl)amino)-N-hydroxypyrimidine-5-carboxamide]: 153 to 156 °C and < 100 nM.
As for `CN(Cc1cc2nc(-c3cnc(CN)nc3)nc(N3CCOCC3)c2s1)c1ncc(C(=O)NO)cn1` [Compound 124, 2-(((2-(2-(aminomethyl)pyrimidin-5-yl)-4-morpholinothieno[3,2-d]pyrimidin-6-yl)methyl)(methyl)amino)-N-hydroxypyrimidine-5-carboxamide], the melting point is > 300 °C. Moreover, in data set [1], the IC50 was < 100 nM.
As to `CN(Cc1cc2nc(-c3ccccc3)nc(N3CCOCC3)c2s1)c1ncc(C(=O)NO)cn1` [Compound 129, N-hydroxy-2-(methyl((4-morpholino-2-phenylthieno[3,2-d]pyrimidin-6-yl)methyl)amino)pyrimidine-5-carboxamide], the melting point fell in the range of 199 to 200 °C. In addition, in data set [1], the IC50 is < 100 nM.
The like results for `COc1cccc(-c2nc(N3CCOCC3)c3sc(CN(C)c4ncc(C(=O)NO)cn4)cc3n2)c1` [Compound 130, N-hydroxy-2-(((2-(3-methoxyphenyl)-4-morpholinothieno[3,2-d]pyrimidin-6-yl)methyl)(methyl)amino)pyrimidine-5-carboxamide] were, in that order, 179 to 181 °C and < 100 nM.
The matching figures for `CN(Cc1cc2nc(-c3ccc(O)cc3)nc(N3CCOCC3)c2s1)c1ncc(C(=O)NO)cn1` [Compound 133, N-hydroxy-2-(((2-(4-hydroxyphenyl)-4-morpholinothieno[3,2-d]pyrimidin-6-yl)methyl)(methyl)amino)pyrimidine-5-carboxamide]: 185 to 195 °C and < 100 nM.
Regarding `CN(Cc1cc2nc(-c3cccc(N)c3)nc(N3CCOCC3)c2s1)c1ncc(C(=O)NO)cn1` [Compound 134, 2-(((2-(3-aminophenyl)-4-morpholinothieno[3,2-d]pyrimidin-6-yl)methyl)(methyl)amino)-N-hydroxypyrimidine-5-carboxamide], the melting point was in the range of 179 to 182 °C. For the same molecule, the IC50 in data set [1] is < 100 nM.
Regarding `CN(Cc1cc2nc(-c3ccc(CN)cc3)nc(N3CCOCC3)c2s1)c1ncc(C(=O)NO)cn1` [Compound 135, 2-(((2-(4-(aminomethyl)phenyl)-4-morpholinothieno[3,2-d]pyrimidin-6-yl)methyl)(methyl)amino)-N-hydroxypyrimidine-5-carboxamide], the melting point lay within 184 to 186 °C. Moreover, the IC50 in data set [1] is < 100 nM.
The like results for `CN(Cc1cc2nc(-c3cccc(CN)c3)nc(N3CCOCC3)c2s1)c1ncc(C(=O)NO)cn1` [Compound 137, 2-(((2-(3-(aminomethyl)phenyl)-4-morpholinothieno[3,2-d]pyrimidin-6-yl)methyl)(methyl)amino)-N-hydroxypyrimidine-5-carboxamide] were, in that order, 173 to 176 °C and < 100 nM.
The like results for `COCc1cccc(-c2nc(N3CCOCC3)c3sc(CN(C)c4ncc(C(=O)NO)cn4)cc3n2)c1` [Compound 139, N-hydroxy-2-(((2-(3-(methoxymethyl)phenyl)-4-morpholinothieno[3,2-d]pyrimidin-6-yl)methyl)(methyl)amino)pyrimidine-5-carboxamide] were, in that order, 178 to 181 °C and < 100 nM.
`CN(Cc1cc2nc(-c3ccc(CO)cc3)nc(N3CCOCC3)c2s1)c1ncc(C(=O)NO)cn1` [Compound 140, N-hydroxy-2-(((2-(4-(hydroxymethyl)phenyl)-4-morpholinothieno[3,2-d]pyrimidin-6-yl)methyl)(methyl)amino)pyrimidine-5-carboxamide] showed a melting point of 218 to 223 °C. Besides, the IC50 in data set [1] was < 100 nM.
The like results for `CN(Cc1cc2nc(-c3ccccc3CO)nc(N3CCOCC3)c2s1)c1ncc(C(=O)NO)cn1` [Compound 141, N-hydroxy-2-(((2-(2-(hydroxymethyl)phenyl)-4-morpholinothieno[3,2-d]pyrimidin-6-yl)methyl)(methyl)amino)pyrimidine-5-carboxamide] were, in that order, 173 to 176 °C and < 100 nM.
The like results for `CN(Cc1cc2nc(-c3ccc(C(N)=O)cc3)nc(N3CCOCC3)c2s1)c1ncc(C(=O)NO)cn1` [Compound 143, 2-(((2-(4-carbamoylphenyl)-4-morpholinothieno[3,2-d]pyrimidin-6-yl)methyl)(methyl)amino)-N-hydroxypyrimidine-5-carboxamide] were, in that order, 200 to 202 °C and < 100 nM.
The matching figures for `CNC(=O)c1cccc(-c2nc(N3CCOCC3)c3sc(CN(C)c4ncc(C(=O)NO)cn4)cc3n2)c1` [Compound 144, N-hydroxy-2-(methyl((2-(3-(methylcarbamoyl)phenyl)-4-morpholinothieno[3,2-d]pyrimidin-6-yl)methyl)amino)pyrimidine-5-carboxamide]: 215 to 217 °C and < 100 nM.
For the molecule `CN(Cc1cc2nc(-c3ccc(C#N)cc3)nc(N3CCOCC3)c2s1)c1ncc(C(=O)NO)cn1` [Compound 146, 2-(((2-(4-cyanophenyl)-4-morpholinothieno[3,2-d]pyrimidin-6-yl)methyl)(methyl)amino)-N-hydroxypyrimidine-5-carboxamide], the melting point was 214 to 216 °C. Further, the IC50 in data set [1] was < 100 nM.
Molecule `CN(Cc1cc2nc(-c3ccc(Cl)cc3)nc(N3CCOCC3)c2s1)c1ncc(C(=O)NO)cn1` [Compound 147, 2-(((2-(4-chlorophenyl)-4-morpholinothieno[3,2-d]pyrimidin-6-yl)methyl)(methyl)amino)-N-hydroxypyrimidine-5-carboxamide] came in with a melting point of 153 °C. Also, the IC50 in data set [1] is < 100 nM.

The values are drawn from patent US8906909B2 (Curis, Inc., priority 2009, dated 2014).
